Experimental data taken from article PMC3515705 (Nature structural & molecular biology, 2012).

Target: scRio2 (Saccharomyces cerevisiae, UniProt P40160)
Sequence (P40160 whole entry): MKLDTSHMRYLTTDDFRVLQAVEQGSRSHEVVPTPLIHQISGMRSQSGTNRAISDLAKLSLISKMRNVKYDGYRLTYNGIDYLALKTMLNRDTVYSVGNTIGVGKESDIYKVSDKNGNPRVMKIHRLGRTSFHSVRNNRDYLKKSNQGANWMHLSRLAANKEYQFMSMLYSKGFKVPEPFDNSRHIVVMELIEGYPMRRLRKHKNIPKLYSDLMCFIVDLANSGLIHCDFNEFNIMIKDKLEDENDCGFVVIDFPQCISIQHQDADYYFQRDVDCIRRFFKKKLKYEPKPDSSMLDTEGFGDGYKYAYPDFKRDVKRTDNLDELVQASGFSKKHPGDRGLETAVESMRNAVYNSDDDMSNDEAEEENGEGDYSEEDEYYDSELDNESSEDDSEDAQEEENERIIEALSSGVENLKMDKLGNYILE

Nc1ncnc2c1ncn2[C@@H]1O[C@H](COP(=O)(O)OP(=O)(O)OP(=O)(O)O)[C@@H](O)[C@H]1O [ATP]
autophosphorylation detected by mass spectrometry: phospho-serine residues after incubation of purified recombinant scRio2 with ATP
